Test results published in article PMC7079008, “Compactness of Protein Folds Alters Disulfide‐Bond Reducibility by Three Orders of Magnitude: A Comprehensive Kinetic Case Study on the Reduction of Differently Sized Tryptophan Cage Model Proteins” (Chembiochem, 2019).
Where a SMILES comes first, the peptide text is derived from it. Bridges are numbered along the chain shown (N, C = ends).

Assays:
[1] = Degree of fold by FUV-ECD (CCA+ ensemble deconvolution); type: physicochemical; conditions: for Degree of the fold by FUV-ECD: T=15 °C, c(protein)=20–30 μM, pH≈7, joint CCA+ deconvolution of 204 T-dependent FUV-ECD spectra; for difference in folded fraction between SS variant and parent: at 4 °C, FUV-ECD ensemble deconvolution
Excerpt: Circular dichroism (CD) spectroscopy is increasingly recognized as very sensitive indicator of protein conformation,58, 59 relying on a plethora of electronic transitions. The FUV‐ECD spectra of Trp‐cage proteins (e.g., Exenatide, E19, E19_SS) are typically the weighted sums of the C‐ (folded and highly helical) and U‐type (unfolded) base curves (Figure 2 A), as assigned and verified by means of NMR spectroscopy.60, 61 As the temperature increases, the shape of the FUV‐ECD spectra changes: those of the parent proteins—E2, E5, E11, and E19—acquire more and more U‐type characteristics, as they unfold gradually. The temperature‐dependent FUV‐ECD spectra for all four SS bond enforced model peptides were recorded between 5 and 85 °C (in steps of 5 °C, resulting in 17 spectra for each protein; Figure S1 in the Supporting Information). Aside from E2_SS, the SS‐bond‐containing mutants have similar FUV‐ECD spectra to that of their parent proteins at low temperatures. On the other hand, because the SS bond makes the 3D folds of SS variants more rigid, they preserve their C‐type characteristics better and delay unfolding, even at higher temperatures. Once the SS bond is reduced (see below for details), the spectral properties of the SH variants revert to those of the parent proteins. Their 3D‐scaffold compactness decreases as the temperature increases; this is less apparent in the case of E2 and E2_2SH because they both already present an ensemble of dynamic backbone structures at 5 °C.
Ensemble deconvolution62, 63 of the 204 (12×17) ECD spectra, f(λ, T), made the quantitative analysis of the relative abundance of secondary structural elements belonging to each peptide in each state possible because the pure ECD curves were successfully assigned.60, 64, 65, 66 The results in Figure 2 B indicate that 1) the SS bond stabilizes the less folded protein scaffolds more effectively, for example, whereas the difference at 4 °C between the E2 and E2_SS folded fraction is 48 %, the same difference between E5 and E5_SS is 14 %; in the case of E11 and E11_SS, it is only 28 %, and for E19 and E19_SS it is 7 % (Figure 2 D). 2) The ratio of the folded, helical components increases upon going from E2 to E5 and E11; however, the compact α‐helical content of E19_SS, E19_2SH, and E19 is lower than those of E11_SS, E11_2SH, and E11 because the unfolded eight‐residue‐long N‐terminal part elevates the overall backbone dynamics, which destabilizes the compact 3D fold. 3) All four reduced proteins (E2_2SH, E5_2SH, E11_2SH, E19_2SH) have a higher helix content (≈7–15 %) than that of the parent proteins over the entire temperature range. 4) The 3D folds stabilized by SS bonds are less sensitive to temperature (Figure 2 C, D).
ECD: FUV‐ECD spectra were recorded on a Jasco J810 spectrophotometer by using a 1.0 mm path length cuvette with protein concentrations of 20–30 μM. Data accumulation was performed over a range of 185–260 nm, with 0.2 nm step resolution at a scan rate of 50 nm min^−1 with a 1 nm bandwidth. The spectral accumulations were resolved between 5 and 85 °C in steps of 5 °C. The temperature was controlled by using a Peltier‐type heating system. Each spectrum baseline was processed by subtracting the solvent spectrum from that of the protein and the raw ellipticity data were converted into mean residue molar ellipticity units, [Θ]MR.

[2] = SS bond reduction by DTT monitored by 1H NMR; type: physicochemical; conditions: 1.7 mM protein, twofold excess of DTT, 15 °C; for DTT: Conversion rate / DTT: Elapsed time to steady state: pH 7; for DTT: t1/2 of reduction: pH 7, calculated from k1 (Eq. 12); for DTT: k1: pH 7, parameter estimation (phase 1 data)
Procedure: An appropriate reduction protocol was required to unambiguously determine the 3D structures of the above‐introduced pure reduced states. Thus, in agreement with the above discussion, only mild conditions (15 °C and twofold molar excess of […]) were used for the reduction of the four different miniproteins. Determining the structural properties and reduction rates under the same conditions allowed us to elucidate the basis of the observed differences in the reduction rates. […] It appears as if “cutting back” on the α‐helical segment strongly affects the SS bond reducibility, even though the SS bonds of all four models are near the surfaces (Figure 7 A). To our great surprise, we recorded three orders of magnitude differences between the reduction rate constants (Table 3). Whereas the reduction of E2_SS is still extremely fast, tE2_SS/1/2 <≈1 min, that of E5_SS occurs on the timescale of minutes: tE5_SS/1/2 ≈14 min. […] The conversion rate was close to complete for the shorter peptide of E2_SS, whereas the reduction of E19_SS was only 88 % complete. The kinetic parameters of all four model proteins were determined by using a twofold molar excess of DTT, at pH 7, and T=15 °C.
Monitoring reduction kinetics: Peptide samples were prepared between 0.8 and 1.8 mM in 50 mM NaH2PO4–Na2HPO4 buffer (600 μL, pH 6.95), with 10 % D2O. A 0.1 M solution of NaOH was used to set the pH to 7. Sodium trimethylsilylpropanesulfonate (DSS) was added as the internal proton reference standard, set to δ=0.0 ppm under all conditions. ^1H,^1H 2D homonuclear spectra were recorded for the oxidized peptide; thereafter, upon the addition of a different excess of 0.5 M TCEP or DTT, reduction was observed by recording a series of 1D ^1H spectra (ns=64 or 128 scans). Finally, at the end point, ^1H,^1H homonuclear 2D spectra were recorded on the reduced peptide. Data sets were processed by using TopSpin 3.2 software. The conversion rate was determined by using the relative integral of the Trp Hϵ1 signal in the oxidized (IntOX) and reduced (IntRED) form. Each integral was normalized to the integral of DSS. The concentrations were determined by the ratio of the oxidized and reduced integrals and the initial protein concentration.
Parameter estimation: Kinetic parameter estimation was based on the integral of selected NMR signals considered to be proportional to the concentration of the relevant species. The mechanism taken into account is that given by Equations (8), (9), (10), (11):(8) SS+Red→k12SH+Ox (9) 2SH+O2→k2SS (10) [drawing 1] (11) [drawing 2]
in which SS is the […] model protein with an intramolecular S−S bond; 2 SH is the same protein with the S−S bond reduced to two −SH groups; and the symbol Ø means a different phase from that of the reaction mixture, that is, the polymer aggregate as a sink in the first case and the gas phase as a source in the second case.
For parameter estimation, the COPASI 4.16 (Build 104) Biochemical System Simulator software (http://copasi.org/) was used, with the parameter estimation option of the Levenberg–Marquardt method.
To determine the half‐life and initial concentration of the SS species, a kinetic analysis of the temporal evolution of the reactions was performed. […] From the kinetic analysis, the initial concentration of oxygen ([O2]0) could also be estimated, except for one case in which the uncertainty of this parameter was very large, due to the lack of sufficient experimental data.
Because reduction follows second‐order kinetics, the half‐life (t 1/2) of model proteins also depends on the actual concentration of the RA in the reaction mixture [Eq. (12):(12) t1/2=1/k1(cRed,0-cSS,0)ln2-cSS,0/cRed,0

Degree of the fold by FUV-ECD [1] [%]	difference in folded fraction between SS variant and parent [1] [%]	DTT: Conversion rate [2]	DTT: Elapsed time to steady state [2] [h]	DTT: t1/2 of reduction [2] [h]	SMILES	DTT: k1 [2] [M⁻¹ s⁻¹]
51.8	48	100%	5	1.03	CC[C@H](C)[C@@H]1NC(=O)[C@H](Cc2ccc(O)cc2)NC(=O)[C@H](CC(C)C)NC(=O)[C@H](CCCNC(=N)N)NC(=O)[C@H](C(C)C)NC(=O)[C@@H](N)CSSC[C@@H](C(=O)O)NC(=O)[C@@H]2CCCN2C(=O)[C@@H]2CCCN2C(=O)[C@@H]2CCCN2C(=O)[C@H](CCCNC(=N)N)NC(=O)CNC(=O)[C@H](CO)NC(=O)[C@H](CO)NC(=O)[C@@H]2CCCN2C(=O)CNC(=O)CNC(=O)[C@H](CC(=O)O)NC(=O)[C@H](CCCCN)NC(=O)[C@H](CC(C)C)NC(=O)[C@H](Cc2c[nH]c3ccccc23)NC(=O)[C@H](CCC(N)=O)NC1=O [E2_SS] (H-CVRLYIQWLKDGGPSSGRPPPC-OH; disulfide 1-22)	0.0673
96.0	28	≈84%	138	27.65	CC[C@H](C)[C@@H]1NC(=O)[C@H](Cc2ccc(O)cc2)NC(=O)[C@H](CC(C)C)NC(=O)[C@H](CCCNC(=N)N)NC(=O)[C@H](C(C)C)NC(=O)[C@@H](NC(=O)[C@H](CCC(=O)O)NC(=O)[C@H](CCC(=O)O)NC(=O)[C@H](CCC(=O)O)NC(=O)[C@H](CCSC)NC(=O)[C@H](CCC(N)=O)NC(=O)[C@H](CCCCN)NC(=O)[C@H](CO)NC(=O)[C@H](CC(C)C)NC(=O)[C@@H](N)CC(=O)O)CSSC[C@@H](C(=O)O)NC(=O)[C@@H]2CCCN2C(=O)[C@@H]2CCCN2C(=O)[C@@H]2CCCN2C(=O)[C@H](CCCNC(=N)N)NC(=O)CNC(=O)[C@H](CO)NC(=O)[C@H](CO)NC(=O)[C@@H]2CCCN2C(=O)CNC(=O)CNC(=O)[C@H](CC(=O)O)NC(=O)[C@H](CCCCN)NC(=O)[C@H](CC(C)C)NC(=O)[C@H](Cc2c[nH]c3ccccc23)NC(=O)[C@H](CCC(N)=O)NC1=O [E11_SS] (H-DLSKQMEEECVRLYIQWLKDGGPSSGRPPPC-OH; disulfide 10-31)	0.00253
63.4	14	95%	9 to 10	1.92	CC[C@H](C)[C@@H]1NC(=O)[C@H](Cc2ccc(O)cc2)NC(=O)[C@H](CC(C)C)NC(=O)[C@H](CCCNC(=N)N)NC(=O)[C@H](C(C)C)NC(=O)[C@@H](NC(=O)[C@H](CCC(=O)O)NC(=O)[C@H](CCC(=O)O)NC(=O)[C@@H](N)CCC(=O)O)CSSC[C@@H](C(=O)O)NC(=O)[C@@H]2CCCN2C(=O)[C@@H]2CCCN2C(=O)[C@@H]2CCCN2C(=O)[C@H](CCCNC(=N)N)NC(=O)CNC(=O)[C@H](CO)NC(=O)[C@H](CO)NC(=O)[C@@H]2CCCN2C(=O)CNC(=O)CNC(=O)[C@H](CC(=O)O)NC(=O)[C@H](CCCCN)NC(=O)[C@H](CC(C)C)NC(=O)[C@H](Cc2c[nH]c3ccccc23)NC(=O)[C@H](CCC(N)=O)NC1=O [E5_SS] (H-EEECVRLYIQWLKDGGPSSGRPPPC-OH; disulfide 4-25)	0.0363
